For this series the following is noted: 101.33 kPa, Liquid.
Where [1] appears, read: 283.15 K, Vibrating tube method.
Where [2] appears, read: 298.15 K, Vibrating tube method.
The mark [3] stands for this setting: 323.15 K, Vibrating tube method.
[4] abbreviates: 348.15 K, Vibrating tube method.

Numbers after ± are expanded uncertainties.

As to `CCn1cc[n+](C)c1.O=S(=O)([O-])C(F)(F)C(F)F`, the mass density (301.45 K, Pycnometric method) is 1502 ± 5 kg/m3.
With `CCn1cc[n+](C)c1.O=S(=O)([N-]S(=O)(=O)C(F)(F)C(F)(F)F)C(F)(F)C(F)(F)F`, the mass density is, setting by setting: under setting [1], 1608 ± 3 kg/m3; under setting [2], 1590 ± 3 kg/m3; under setting [3], 1562 ± 3 kg/m3; under setting [4], 1534 ± 3 kg/m3.
For `CCCCn1cc[n+](C)c1.O=S(=O)([O-])C(F)(F)C(F)OC(F)(F)C(F)(F)F` (centres undefined) the same measures were 1439 ± 4 kg/m3, 1423 ± 4 kg/m3, 1397 ± 4 kg/m3 and 1372 ± 4 kg/m3.
For `CCC[n+]1cccc(C)c1.O=S(=O)([N-]S(=O)(=O)C(F)(F)F)C(F)(F)F` the same measures were 1460 ± 3 kg/m3, 1444 ± 3 kg/m3, 1420 ± 3 kg/m3 and 1397 ± 3 kg/m3.
For the molecule `CCCCn1cc[n+](C)c1.O=S(=O)([O-])C(F)(F)C(F)F`, the mass density (301.45 K, Pycnometric method) amounted to 1324 ± 4 kg/m3.
In the case of `CCC[n+]1ccn(C)c1C.O=S(=O)([N-]S(=O)(=O)C(F)(F)F)C(F)(F)F`, the mass density (299.15 K, Pycnometric method) is recorded as 1481 ± 3 kg/m3.
On to `CCCCn1cc[n+](C)c1.O=S(=O)([O-])C(F)(F)C(F)(F)OC(F)C(F)(F)F` (centres undefined), for which the mass density turned out to be 1464 ± 4 kg/m3 under setting [1], 1449 ± 4 kg/m3 under setting [2], 1425 ± 4 kg/m3 under setting [3] and 1401 ± 4 kg/m3 under setting [4].
Turning to `CCCCn1cc[n+](C)c1.N#C[S-]` [1-butyl-3-methylimidazolium thiocyanate], the mass density (298.65 K, Pycnometric method) stood at 1067 ± 3 kg/m3.
Regarding `CCCC[n+]1ccn(C)c1.O=S(=O)([O-])C(F)(F)C(F)C(F)(F)F` (centres undefined), the mass density runs as follows: under setting [1], 1422 ± 4 kg/m3; under setting [2], 1409 ± 4 kg/m3; under setting [3], 1385 ± 4 kg/m3; under setting [4], 1364 ± 4 kg/m3.
On to `CC(=O)[O-].CCCCn1cc[n+](C)c1` [1-butyl-3-methylimidazolium acetate], for which the mass density (298.15 K, Pycnometric method) was 1053 ± 3 kg/m3.
On to `CCCCn1cc[n+](C)c1.O=S(=O)([O-])C(F)(F)C(F)OC(F)(F)F` (centres undefined), for which the mass density is 1409 ± 4 kg/m3 under setting [1], 1393 ± 4 kg/m3 under setting [2], 1369 ± 4 kg/m3 under setting [3] and 1345 ± 4 kg/m3 under setting [4].
As to `CCCC[n+]1cccc(C)c1.O=S(=O)([N-]S(=O)(=O)C(F)(F)F)C(F)(F)F`, the mass density runs as follows: under setting [1], 1428 ± 3 kg/m3; under setting [2], 1412 ± 3 kg/m3; under setting [3], 1389 ± 3 kg/m3; under setting [4], 1367 ± 3 kg/m3.
`CCCCCCCn1cc[n+](C)c1.O=S(=O)([O-])C(F)(F)C(F)F`: under “301.15 K, Pycnometric method”, the mass density is 1274 ± 4 kg/m3.
Take `CCn1cc[n+](C)c1.O=S(=O)([N-]S(=O)(=O)C(F)(F)F)C(F)(F)F`: the mass density under setting [1] is on record as 1534 ± 5 kg/m3, the mass density under setting [2] is recorded as 1517 ± 5 kg/m3, the mass density under setting [3] turned out to be 1492 ± 4 kg/m3 and the mass density under setting [4] is reported as 1467 ± 4 kg/m3.
Taken in the same sequence, the figures for `CCCn1cc[n+](C)c1C.O=S(=O)([C-](S(=O)(=O)C(F)(F)F)S(=O)(=O)C(F)(F)F)C(F)(F)F` were 1612 ± 3 kg/m3, 1597 ± 3 kg/m3, 1582 ± 3 kg/m3 and 1567 ± 3 kg/m3.
In the case of `CCCCCCCCCCCCn1cc[n+](C)c1.O=S(=O)([O-])C(F)(F)C(F)F`, the mass density (301.35 K, Pycnometric method) was found to be 1136 ± 4 kg/m3.
Turning to `CCCCn1cc[n+](C)c1.COS(=O)(=O)[O-]` [1-butyl-3-methylimidazolium methyl sulfate], the mass density (298.15 K, Pycnometric method) came out at 1214 ± 3 kg/m3.

(Values after the NIST ThermoML archive (doi:10.1021/je050386z).)
